melting point | Compound
> 260 °C | Cc1sc2[nH]c(=S)nc(N)c2c1C
142 to 145 °C | CS(=O)(=O)c1ccc(-c2cnn(-c3cccc(Cl)c3)c(=O)c2CCc2ccccc2)cc1
174 to 178 °C | CCCc1c(CSc2nccc(OCC(=O)O)n2)ccc(C(C)=O)c1O
174 to 175 °C | Brc1ccc(SC2CCN(C(c3ccccc3)(c3ccccc3)c3ccccc3)CC2)cc1
227 to 229 °C | Cc1c(-c2ccccc2)sc2nc(NCCO)[nH]c(=O)c12
62 °C | CC(=O)CC(O)c1ccc([N+](=O)[O-])cc1 (stereo not drawn)
133 °C | COC=C(C(=O)OC)c1scnc1COc1ccccc1
160 to 162 °C | COC(=O)c1cc(O)c2cc[nH]c2c1
165 °C | Clc1ccc(CN2CC=C(/C=C/c3ccc4[nH]ccc4c3)CC2)cc1
166 to 169 °C | CC1(C)Nc2ccccc2-n2cnc(-c3noc(C4CC4)n3)c21
104 °C | CCCC(c1ccc(C(=O)OC)cc1OCc1ccc(Cl)cc1Cl)n1ccnc1 (stereo not drawn)
131 to 133 °C | CC(NC(=O)OC(C)(C)C)C(=O)Nc1cc(CO)cc(Nc2c3ccccc3nc3ccccc23)c1 (stereo not drawn)
161 to 163 °C | CCN(CC)CCN1C(=O)Nc2ccc([N+](=O)[O-])cc2C1c1ccccc1 (stereo not drawn)
93 to 95 °C | CCOC(=O)C1=C(COCCN(C)S(C)(=O)=O)NC(C)=C(C(=O)OC)C1c1ccccc1Cl (stereo not drawn)
108 to 110 °C | Fc1ccc(-c2cc(-c3ccccc3)c(-c3ccccc3)s2)cc1
173 to 175 °C | CCOC(=O)Cn1c(N)nc(-c2ccccc2)c1-c1ccccc1
164 to 166 °C | COc1ccc(/C=C(\C#N)c2c(Cl)cccc2Cl)cc1OC1CCCC1
> 220 °C | CSc1nn2c(O)cc(C)nc2c1S(=O)(=O)c1ccccc1

melting point | Compound
173 to 180 °C | NC(=O)Cc1cc(Oc2ccc3c(ccn3C(=O)Nc3ccc(CN4CCNCC4)c(C(F)(F)F)c3)c2)ncn1
99 to 101 °C | CSc1cccc(Oc2ncc(F)cc2C(=O)N[C@@H]2CCCC[C@@H]2O)c1 (relative stereo)
193 °C | CCCCCCCCCCCCCCn1c(=O)[nH]c2nc3ccccc3n2c1=O
146 °C | Cc1ccc2c(c1)C(C(=O)Nc1c(C(C)C)cc(SC#N)cc1C(C)C)c1ccccc1CO2 (stereo not drawn)
84 to 86 °C | CCCCc1nn(-c2cc([N+](=O)[O-])ccc2Cl)c(=O)n1Cc1ccc(-c2cc(CCC)ccc2S(=O)(=O)NC(C)(C)C)cc1F
128 to 130 °C | CCc1c(Sc2cc(C)cc(C)c2)n(CC2CC=CC2)c(=O)[nH]c1=O
259 to 261 °C | CCOC(=O)c1cn2c3c(c(Cl)ccc3c1=O)N(C)CC2C (stereo not drawn)
129 to 130 °C | c1ccc2c(c1)OCCc1c-2n(Cc2ccc(OCCCN3CCCCC3)cc2)c2ccccc12
60 to 62 °C | CCCCCCCCCCCCCCCCCCOCCSCCOC(=O)NCc1ccccn1
70 to 72 °C | CCOC(=O)C(CCCCCN1C(=O)c2ccccc2C1=O)(NC(C)=O)C(=O)OCC
106 to 108 °C | CCOC(=O)Cc1ccc(-c2nc(COc3ccc(COc4nn(-c5ccccc5)cc4/C=C/c4coc(C(C)C)n4)cc3OC)c(C)o2)cc1
20 to 31 °C | CCCCCCCCCCOCc1ccc(CO)cc1
118 to 119 °C | COc1cc(C=O)ccc1OCc1sc(-c2ccccc2)nc1C
87 to 88 °C | COc1c(Br)cc(Br)cc1CC#N
104 °C | CCOC(=O)C1(CCCC(=O)OC(C)(C)C)CCn2c(cc3ccccc32)C1=O (stereo not drawn)
167 to 169 °C | Cc1cc(C(=O)C(=O)O)ccc1OCCOc1ccc2ccccc2c1
107 °C | Brc1ccc(-c2ccnc(-c3ccccc3)n2)cc1
73 to 74 °C | OCC1OC(OCc2ccccc2)C(OCc2ccccc2)C1O (stereo not drawn)

Compound | melting point
Cc1ccc(-c2coc(-c3ccc4c(c3)C(C)(C)CCC4(C)C)c2)cc1 | 155 to 157 °C
Cc1ccc2c(c1)C1CN(CCO)CCC1N2 (stereo not drawn) | 182 to 185 °C

Reference: a melting point compilation (Tetko et al.; mined from patent text by program, amines drawn as free bases though some values may be those of a salt)
